Reference: patent US8686050B2, “Diglycidic ether derivative therapeutics and methods for their use” (British Columbia Cancer Agency Branch, priority 2008, dated 2014)
Values joined by “and” are separate entries in the source; they are usually repeats but may differ in a detail not shown here. Equal entries are not always repeated.

Columns and labels:
AR [1] = target: T1, AR (Homo sapiens, UniProt P10275, T878A); test: ARR3-luciferase reporter in LNCaP cells; assay type: cell-based; parameters: LNCaP cells express endogenous AR and secrete prostate-specific antigen (PSA); endogenous in cells; host or cells: LNCaP; settings: read-out: inhibition of R1881 activation of ARR31uc
T1 sequence (P10275 1-920 T878A): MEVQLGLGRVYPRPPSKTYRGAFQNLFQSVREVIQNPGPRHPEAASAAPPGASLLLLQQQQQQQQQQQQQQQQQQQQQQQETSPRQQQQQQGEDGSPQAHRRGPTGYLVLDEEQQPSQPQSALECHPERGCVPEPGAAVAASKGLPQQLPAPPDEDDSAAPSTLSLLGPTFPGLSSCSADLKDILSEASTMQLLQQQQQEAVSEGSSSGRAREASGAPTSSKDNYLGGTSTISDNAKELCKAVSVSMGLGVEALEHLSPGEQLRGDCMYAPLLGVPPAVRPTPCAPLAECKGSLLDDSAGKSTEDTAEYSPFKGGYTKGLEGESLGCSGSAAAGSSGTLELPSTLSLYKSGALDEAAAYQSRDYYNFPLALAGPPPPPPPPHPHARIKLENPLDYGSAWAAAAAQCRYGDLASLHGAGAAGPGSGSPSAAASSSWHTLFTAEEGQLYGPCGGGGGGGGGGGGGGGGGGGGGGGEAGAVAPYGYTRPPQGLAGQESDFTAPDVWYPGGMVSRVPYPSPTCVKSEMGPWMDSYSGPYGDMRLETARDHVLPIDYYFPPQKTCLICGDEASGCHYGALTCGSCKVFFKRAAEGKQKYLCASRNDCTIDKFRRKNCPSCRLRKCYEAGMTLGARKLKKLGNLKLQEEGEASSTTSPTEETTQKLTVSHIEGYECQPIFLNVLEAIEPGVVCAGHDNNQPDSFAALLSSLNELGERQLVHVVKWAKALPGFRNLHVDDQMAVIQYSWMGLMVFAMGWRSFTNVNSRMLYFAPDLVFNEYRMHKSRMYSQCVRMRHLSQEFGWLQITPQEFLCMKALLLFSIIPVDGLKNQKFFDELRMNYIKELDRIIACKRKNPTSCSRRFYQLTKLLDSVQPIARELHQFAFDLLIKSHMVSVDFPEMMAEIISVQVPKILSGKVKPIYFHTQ
Text: LNCaP cells were employed initially for all experiments because they are well-differentiated human prostate cancer cells in which ligand-independent activation of the AR by FSK has been characterized (Nazareth et al 1996 J. Biol. Chem. 271, 19900-19907; and Sadar 1999 J. Biol. Chem. 274, 7777-7783). LNCaP cells express endogenous AR and secrete prostate-specific antigen (PSA) (Horoszewicz et al 1983 Cancer Res. 43, 1809-1818). LNCaP cells can be grown either as monolayers in cell culture or as tumors in the well-characterized xenograft model that progresses to androgen independence in castrated hosts (Sato et al 1996 J. Steroid Biochem. Mol. Biol. 58, 139-146; Gleave et al 1991 Cancer Res. 51, 3753-3761; Sato et al 1997 Cancer Res. 57, 1584-1589; and Sadar et al 2002 Mol. Cancer. Ther. 1(8), 629-637). […] Reporter specificity may be determined using several alternative reporter gene constructs. […]
To ensure that the inhibitory effects of PNG 01-185 extract on endogenous PSA protein was at the transcriptional level, reporter gene constructs were also examined. Activation of the endogenous AR was measured in LNCaP human prostate cancer cells by measuring androgen-responsive reporters that contain androgen response elements (AREs) such as the PSA-luciferase reporter gene construct or the ARR3-luciferase reporter. […]

[2] = target: T2, Gal4 DBD-AR1-558 (AR NTD) (Homo sapiens, UniProt P10275); test: Transactivation of the AR NTD (Gal4 DBD-AR1-558 with 5xGal4UAS-luciferase) in LNCaP cells; assay type: cell-based; settings: for inhibition at 20 µM: read-out: inhibition of Fsk activation of Ga14ARN
T2 construct: cloning amino acids 1-558 of the human AR NTD into the C-terminus of Gal4 DBD; expressed in transfected cells; host or cells: LNCaP
T2 sequence (P10275 1-558): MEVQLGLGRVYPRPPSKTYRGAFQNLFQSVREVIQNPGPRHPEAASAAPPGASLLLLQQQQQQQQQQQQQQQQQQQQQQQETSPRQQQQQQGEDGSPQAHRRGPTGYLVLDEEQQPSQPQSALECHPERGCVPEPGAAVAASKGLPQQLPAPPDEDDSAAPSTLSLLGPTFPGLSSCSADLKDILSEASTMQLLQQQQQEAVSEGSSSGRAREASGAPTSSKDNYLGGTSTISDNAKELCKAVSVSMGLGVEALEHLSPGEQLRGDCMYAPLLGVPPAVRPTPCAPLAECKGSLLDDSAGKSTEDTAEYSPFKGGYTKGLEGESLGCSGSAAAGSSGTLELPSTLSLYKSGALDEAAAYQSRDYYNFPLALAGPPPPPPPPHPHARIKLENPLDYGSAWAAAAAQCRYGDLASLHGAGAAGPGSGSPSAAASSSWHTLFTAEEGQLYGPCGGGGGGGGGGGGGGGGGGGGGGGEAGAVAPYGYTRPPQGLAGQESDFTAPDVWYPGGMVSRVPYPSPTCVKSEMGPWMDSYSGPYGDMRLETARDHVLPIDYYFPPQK
Text: These fractions were next tested for their ability to inhibit the AR NTD. […] Extracts identified above were screened by such assays as well as some compounds purchased from commercial suppliers.
Expression vectors for these chimeric proteins were cotransfected into LNCaP cells with a reporter gene containing the Gal4-binding site as cis-acting elements (p5×Gal4UAS-TATA-luciferase).

AR [3] = target: T1, AR; test: PSA (6.1 kb)-luciferase (p6.1luc) reporter in LNCaP cells; assay type: cell-based; parameters: LNCaP cells express endogenous AR and secrete prostate-specific antigen (PSA); endogenous in cells; host or cells: LNCaP
Text: LNCaP cells were employed initially for all experiments because they are well-differentiated human prostate cancer cells in which ligand-independent activation of the AR by FSK has been characterized (Nazareth et al 1996 J. Biol. Chem. 271, 19900-19907; and Sadar 1999 J. Biol. Chem. 274, 7777-7783). LNCaP cells express endogenous AR and secrete prostate-specific antigen (PSA) (Horoszewicz et al 1983 Cancer Res. 43, 1809-1818). LNCaP cells can be grown either as monolayers in cell culture or as tumors in the well-characterized xenograft model that progresses to androgen independence in castrated hosts (Sato et al 1996 J. Steroid Biochem. Mol. Biol. 58, 139-146; Gleave et al 1991 Cancer Res. 51, 3753-3761; Sato et al 1997 Cancer Res. 57, 1584-1589; and Sadar et al 2002 Mol. Cancer. Ther. 1(8), 629-637). […] Small molecules that specifically target the AR-NTD should have no effect on PC3 cells. This means that they should not alter the proliferation of PC3 cells if they specifically block the AR to mediate their inhibitory effects. R1881 was employed since it is stable and avoids problems associated with the labile physiological ligand dihydrotestosterone (DHT). Reporter specificity may be determined using several alternative reporter gene constructs. Some well characterized ARE-driven reporter gene constructs that have been used extensively are the PSA (6.1 kb) enhance/promoter which contains several AREs and is highly inducible by androgens as well as by FSK (Ueda et al 2002 A J. Biol. Chem. 277, 7076-7085) and the ARR3-thymidine kinase (tk)-luciferase, which is an artificial reporter construct that contains three tandem repeats of the rat probasin ARE1 and ARE2 regions upstream of a luciferase reporter (Snoek et al 1996 J. Steroid Biochem. Mol. Biol. 59, 243-250).
To ensure that the inhibitory effects of PNG 01-185 extract on endogenous PSA protein was at the transcriptional level, reporter gene constructs were also examined. Activation of the endogenous AR was measured in LNCaP human prostate cancer cells by measuring androgen-responsive reporters that contain androgen response elements (AREs) such as the PSA-luciferase reporter gene construct or the ARR3-luciferase reporter. LNCaP cells maintained as monolayers were transfected with PSA-luciferase and were used to screen the crude extracts prepared from marine sponges as well as some selected commercial compounds. […] R1881 (1 nM) was used to mediate ligand-dependent activation of the AR and concentrations of FSK (50 μM) were used to mediate ligand-independent activation of the AR.

LNCaP xenografts = test: LNCaP subcutaneous xenografts in castrated mice; assay type: in vivo, NOD-SCID male mice; settings: castrated mice
Experimental: Six to eight-week old male athymic SCID mice were inoculated subcutaneously in the flank region via a 27-gauge needle with a 150 μl suspension of LNCaP or PC3 human prostate cancer cells (1×10^6 cells). The inoculations took place while the animal was under isofluorane anaesthesia. The tumor take rate is approximately 75%. Mice bearing tumors of 100 mm^3 were randomly assigned to treatment groups. Castration was performed as described below. Tumor volume (formula: L×W×H×0.5236) was measured in mice bearing LNCaP subcutaneous tumors that became palpable or visible and at least 40 mm^3. The animals were monitored daily and tumors were measured every 5 days.

[4] = LNCaP, at 12.5 μM, read-out: inhibition of R1881 activation of p6.1luc

CC(C)(c1ccc(OCC(O)CO)cc1)c1ccc(OCC(O)CO)cc1 (centres unmarked)
inhibition at 50 µM (AR [1]): 10%

CC(C)(c1ccc(OCC(O)CCl)cc1)c1ccc(OCC(O)CCl)cc1 (centres unmarked) [drawing 123]
inhibition at 12.5 µM ([2]; LNCaP, read-out: inhibition of Fsk activation of Ga14ARN, at 12.5 μM): 79%
inhibition at 12.5 µM (AR [3]; [4]): 69%
inhibition of R1881 activation of p6.1luc (AR [3]; at 12.5 μM): 63%

CC(C)(c1ccc(OCC(O)CCl)cc1)c1ccc(OCC(O)CCl)cc1 (racemic) [BADGE.2HCl, Racemic BADGE×2HCl]
LNCaP tumor volume at start of treatment, intratumoral (LNCaP xenografts; I.T. delivery): 109.6±17.4 mm^3
size of LNCaP xenograft tumors, intratumoral injection (LNCaP xenografts; I.T. every 5 days, 20 mg/kg body weight): reduced the size of the tumors
LNCaP tumor volume at the duration (end) of the experiment, intratumoral (LNCaP xenografts; i.t. every 5 days, five doses): 79.0±63.6 mm^3

CC(C)(c1ccc(OCC(O)CO)cc1)c1ccc(OCC(O)CI)cc1 (centres unmarked)
inhibition at 20 µM ([2]; LNCaP): 7%
inhibition at 12.5 µM (AR [3]; [4]): 20%
inhibition at 20 µM (AR [3]; LNCaP, at 20 μM, read-out: inhibition of R1881 activation of p6.1luc): 33%

CC(C)(c1ccc(OCC(O)CI)cc1)c1ccc(OCC(O)CI)cc1 (centres unmarked) [drawing 126]
inhibition of R1881 activation of p6.1luc (AR [3]; at 12.5 μM): 42% and 29%

CC(C)(c1ccc(OCC(O)CI)cc1)c1ccc(OCC(O)CI)cc1 (centres unmarked) [drawing 125]
inhibition at 20 µM ([2]; LNCaP): 33%
inhibition at 12.5 µM (AR [3]; [4]): 35%
inhibition of R1881 activation of p6.1luc (AR [3]; at 12.5 μM): 33%

CC(C)(c1ccc(OCC(O)CCl)cc1)c1ccc(OCC(O)CCl)cc1 (centres unmarked) [drawing 124]
inhibition of Fsk activation of Ga14ARN ([2]; at 12.5 μM): 88%
inhibition of R1881 activation of p6.1luc (AR [3]; at 12.5 μM): 55%
inhibition of R1881 activation of p6.1luc (AR [3]; concentration not given): 34.8%
